Results on five substances are retold here after PMC7922534, “Searching for Peptide Inhibitors of T Regulatory Cell Activity by Targeting Specific Domains of FOXP3 Transcription Factor” (Biomedicines, 2021).

Series [1] relates to murine CD4+CD25+ Treg cells. Put plainly: In vitro Treg inhibition: anti-CD3 stimulated effector T cells co-cultured with Treg cells, tritiated thymidine incorporation. Format: cell-based, mouse. Particulars: peptide 50 μM, BALB/c Teff 10^5 + Treg 10^4 cells/well, 3 days, tritiated thymidine. As to the method:
(§1) In vitro assays were carried out using (i) the Karpas 299 human cell line (ACC-31, DSMZ, Germany), derived from a human lymphoma with a regulatory T cell profile or (ii) using natural Treg cells isolated from the murine splenocytes. To evaluate the effect of peptides on the immunosuppressive activity of the Karpas 299 cell line, a “mixed lymphocyte reaction” (MLR) assay was carried out using peripheral blood mononuclear cells (PBMCs) from two donors (previously tested to induce a strong MLR reaction in co-culture) (1 × 10^5 cells/well per each PBMC) in the presence or absence of Karpas 299 (1 × 10^4 cells/well). Peptides were added at 50 μM to the co-cultures to evaluate their capacity to restore the production of interferon-gamma (IFN-γ) inhibited by Karpas 299. After 48 hours, the supernatants were extracted to measure interferon-gamma (IFN-γ) by means of a commercial ELISA (Pharmingen, San Diego, CA, US). In vitro assays for Treg inhibition using natural Treg cells: Murine CD4+CD25+ (Treg cells), and CD4+CD25-T-cells (effector T cells) were purified from murine spleen cells by using a murine regulatory T-cell isolation kit (Miltenyi Biotec, Bergisch Gladbach, Germany) according to the manufacturer’s instructions. The purity of the resulting T-cell populations was confirmed to be >95% by flow cytometry. Inhibition of murine T regulatory cell function was measured in an in vitro assay of T-cell stimulation. Effector T cells (10^5 cells/well) from BALB/c mice were stimulated in vitro with 2, 5 μg/mL of anti-mouse CD3 antibody (Pharmingen) in the presence/absence of purified Treg cells (10^4 cells/well) and the indicated peptides (50 μM). T-cell proliferation was measured 3 days later as previously described. Percentage of Treg inhibition was calculated using the following formula: % inhibition= 100*((cpm of Teff&Treg co-cultures in the presence of peptide - cpm of Teff&Treg co-cultures)/(cpm of Teff - cpm of Teff&Treg co-cultures)). The Institutional Review Board on Human Subjects (Clínica Universidad de Navarra, Ref 2016.118) approved this research, and informed consent was obtained from all blood donors.

In the next series the test system is Foxp3–NFAT interaction. Put plainly: Co-immunoprecipitation and Western blot of Flag-Foxp3 and HA-NFAT in HEK293 cells. Format: cell-based. Particulars: HEK293 cells transfected with Flag-Foxp3 and HA-NFAT, peptide 100 μM; Figure 7. As to the method:
HEK293 cells were cultured in Dulbecco modified Eagle medium (Invitrogen) supplemented with 8% heat-inactivated fetal calf serum (FCS), penicillin, and streptomycin (Invitrogen) at 37 °C and 5% CO2. Plasmids cells were grown to 50% confluence in 6-well plates (Nunc) and transfected with a mixture of 2 μg of DNA plasmids (1 μg of FLAG-FOXP3 (expressing Foxp3 linked to the DYKDDDDK peptide tag and 1 μg of HA-NFAT expressing NFAT linked to the […] peptide tag), kindly provided by Dr Paul, Coffer, Utrech, The Netherlands)) and 8 μL PEI (polyethylenimine) overnight; the next day, cells were treated with 393–403 L, 397–406 C, or an irrelevant peptide at 100 μM. Twenty four hour later, HEK 293 cells were lysed in NP40 lysis buffer (0.05 M Tris-HCl pH 7.5, 0.5% Nonidet P40, 0.15 M NaCl, 0.01 M EDTA) containing a HALT^TM protease inhibitor cocktail (ThermoScientific), and immunoprecipitation was performed utilizing anti-FLAG coupled beads (Sigma) during 2 h at 4 C. Beads were washed 3x in lysis buffer, boiled, and samples were separated by SDS-PAGE, electrophoretically transferred to polyvinylidene difluoride membrane (Millipore, Bedford, MA), and hybridized with antibodies as indicated. Immunocomplexes were detected using enhanced chemiluminescence (Biorad).

The conditions of series [2]: cited from earlier work. An excerpt: (§2) We have also focused on the screening campaign of peptides derived from the FOXP3 FKH domain (Section 3.3). Although we identified several peptides encompassing the intermediate region of FKH with high capacity to bind to FOXP3, we focused on peptide […]-407, based on its ability to inhibit Treg activity in vitro.
For another series, the system named is FOXP3:NFAT. As to conditions: cited from earlier work.
From the text: as §2

The test system of the next series is hepatocellular carcinoma. Particulars: murine model of hepatocellular carcinoma; cited from earlier work.
From the text: as §2

The test system of a further series is T-cells. Particulars: cited from earlier work. An excerpt: We focused on a peptide encompassing aminoacids 393–403, which correspond to a region implicated in FOXP/NFAT interaction, which is also key for Treg suppressive activity. FOXP3/NFAT interaction can regulate NFAT activity by (i) competing for binding to DNA [60, 61], (ii) by sequestering NFAT or other NFAT partners, or (iii) by forming a cooperative complex. The cooperative complex between FOXP3 and NFAT is required to repress the expression of the cytokine IL2, upregulate the expression of the Treg markers CTLA4 and CD25, and confer suppressor function. ...

The subject of series [3] is FOXP3/AML1. Put plainly: FOXP3/AML1 interaction by Alphascreen. The format is binding. Particulars: Figure 3C. The procedure:
(§3) The screening of peptide binders to FOXP3 was performed by surface plasmon resonance (SPR) using a ProteOn XPR36 (Bio-Rad, Hercules CA, USA) optical biosensor. Recombinant protein FOXP3-6His produced and purified from E-coli was immobilized covalently onto a GLC sensor chip (Bio-Rad) using the coupling reagents sulfo-NHS (N-Hydroxysulfosuccinimide) and EDC (1-Ethyl-3-(3-dimethylaminopropyl) carbodiimide, (Bio-Rad) as previously described. Peptide solutions (10 μM) were injected by triplicate in running buffer (phosphate-buffered saline, 0.005% (v/v) Tween 20, pH 7.4) at a flow of 30 μL/min. The interspot signal (obtained in the chip surface not immobilized with protein) was used as reference. FOXP3/NFAT1 and FOXP3/AML1 interactions were analyzed by Alphascreen technology as previously described according to the manufacturer’s protocol (Perkin Elmer, Benelux). Reactions were performed in a 40 μL final volume in 96-well Optiwell microtiter plates (Perkin Elmer). […] FOXP3/AML1 interaction was measured following a similar protocol using FOXP3-GST and AML1-His proteins. Exposure of the reaction to direct light was avoided as much as possible, and the emission of light from the acceptor beads was measured in the EnVision plate reader after the indicated incubation period (Perkin Elmer, Benelux).

Series [4] deals with FOXP3 homodimerization. Put plainly: FOXP3 dimerization by Alphascreen. The format is binding. As to conditions: alpha screen.
Series [5] relates to Karpas 299 human cell line. Nature of the series: Mixed lymphocyte reaction with Karpas 299 Treg cell line, IFN-γ by ELISA. Format: cell-based. As to conditions: MLR of PBMCs from two donors + Karpas 299, peptide 50 μM, 48 h. As to the method:
as §1

A further series has as its system 4T1-FOXP3 cells. Nature of the series: Proliferation of 4T1-Ctrl and 4T1-FOXP3 tumor cells in vitro. Particulars: peptide 50 μM, Figure 2C. The format is cell-based. The procedure:
The cell line 4T1-FOXP3 expressing FOXP3 was generated. 4T1-WT cells were transfected with empty pcDNA3.1 or with pcDNA3.1 FOXP3, expressing FOXP3 gene and neomycin (which confers resistance to G418 antibiotic) to generate 4T1-Ctrl and 4T1-Foxp3 cells. Briefly, 8 × 10^5 cells were seeded in 6-well culture plates one day prior to transfection. The cultures were 60–80% confluent at the time of transfection. Cells were transfected with 5 ug plasmid DNA per well for 6 hours using lipofectimine 2000 transfection reagent (Invitrogen). After 48 hours, 0.3 mg/mL of G418 drug (GIBCO) was added to the culture during 14 days for the selection of resistant cells. These cells were used in vitro to measure the effect of peptides to overcome the proliferative capacity inhibited by FOXP3. In addition, 4T1-FOXP3 and 4T1-Ctrl cells were injected in vivo (10^5 cells/ mouse) subcutaneously or intravenously to compare their capacity to induce tumors and lung metastases. Murine Lewis lung carcinoma expressing OVA, LLCOVA were kindly provided by Dr. Daniel Ajona (CIMA). The murine colon adenocarcinoma cell line MC38, LLOOVA, 4T1-Ctrl, and 4T1-FOXP3 were cultured in mouse medium (RPMI 1640, 10% fetal calf serum (Sigma), 100 U/mL penicillin, 100 μg/mL streptomycin (Invitrogene), […] Gentamicin (Gibco), 2 mM L-Glutamine (Lifetechnologies), […] β-mercaptoethanol (Sigma), and fungizone (GIBCO). All cell lines were cultured at 37 °C in a humidified atmosphere with 6.5% CO2.

For series [6], the system named is FOXP3 homodimerization. As to conditions: cited from earlier work. The source says: (§4) A P60 peptide optimization program including alanine scanning, the introduction of D-aminoacids, or head-to-tail cyclization allowed us to improve its stability and efficacy in vitro and in vivo [23].
The test system of series [7] is FOXP3/AML1. As to conditions: cited from earlier work.
From the text: as §4

The conditions of series [8]: cited from earlier work. The procedure:
(§5) The P60 peptide was able to improve the antitumor effect of other immunotherapeutic approaches constituting a potential candidate drug to inhibit Treg activity. An alanine scanning was conducted to identify key positions within the P60 sequence for FOXP3 binding P60. The introduct ...
The source holds these as a separate data set.

A further series deals with FOXP3. As to conditions: cited from earlier work. As to the method: as §5
The subject of another series is Treg. As to conditions: cited from earlier work. As to the method:
as §5

The subject of the next series is FOXP3/NFAT1. Put plainly: FOXP3/NFAT interaction by Alphascreen. Format: binding. Particulars: alpha screen; Figure 6C. The procedure:
as §3

As to “KCFVRVESEKG [F393–403, truncated version of peptide F393–407]”, the “Treg inhibitory capacity in vitro (proliferation of effector T cells with anti-CD3 in presence of Treg)” value (from here on “Treg inhibitory capacity in vitro”) in series [1] is given as “able to inhibit Treg activity in vitro”. Further, the “interaction between Foxp3 and NFAT by co-immunoprecipitation” value with Foxp3–NFAT interaction is given as “able to reduce significantly the interaction”. Besides, in series [2], the pharmacokinetics in vivo result is listed as “poor pharmacokinetics in vivo”. Also, the “FOXP3:NFAT interaction” value in the series with FOXP3:NFAT is listed as “able to inhibit FOXP3:NFAT interaction”. In addition, the “antitumor activity of in vivo peptide administration” value in the series on hepatocellular carcinoma is “had antitumor activity”. Moreover, in the series with T-cells, the “T-cell proliferation and cytokine production in response to TCR stimulation” value is “enhanced T-cell proliferation and the production of cytokines IL-2, IFN-γ, or IL-17”.

Take SLFAVRRHLWGSHGN [F304–318]: in series [1], the “Treg inhibitory capacity in vitro” value was “able to inhibit Treg activity”. For the same substance, the “disruption of FOXP3/AML1 heterodimerization” value in the series on FOXP3/AML1 [3] was “able to impair FOXP3/AML1 heterodimerization”.

In the case of “KEKLSAMQAHLAGKM [p250–265, 15-mer peptide from the leuzin zipper domain of FOXP3]”, the “Treg inhibitory capacity in vitro” value in series [1] is on record as “able to fully restore the proliferative capacity of effector T-cells”. Moreover, in the series on FOXP3 homodimerization [4], the “inhibitory activity on FOXP3 homodimerization” value is reported as “could not demonstrate an inhibitory activity”.

With RDFQSFRKMWPFFAM [p60], the “Treg inhibitory capacity (Karpas MLR assays)” value in series [5] was “potential Treg inhibitory capacity”. Also, in the series with 4T1-FOXP3 cells, the “effect on tumor-suppressor activity of FOXP3 (proliferation of 4T1-FOXP3 versus 4T1-Ctrl cells)” value is “does not alter the antitumor activity of FOXP3”. In the series with FOXP3 homodimerization [6], the FOXP3 dimerization entry is reported as “impairing FOXP3 dimerization”. In addition, in the series with FOXP3/AML1 [7], the FOXP3/AML1 interaction result is “impairing”. Besides, the “ability to enter into the cells” value in series [8] is given as “able to enter into the cells”. The FOXP3 nuclear translocation entry in the series with FOXP3 is “impair FOXP3 nuclear translocation”. Besides, the “Treg activity in vitro and in vivo” value in the series on Treg is “inhibit Treg activity in vitro and in vivo”.

On to “397–406 C: macrocycle consisting of a head-to-tail cyclization of peptide 397–406 (RVESEKGAVW; head-to-tail (backbone) cyclization)”, for which the “Treg inhibitory capacity in vitro” value in series [1] is “improved the Treg inhibitory capacity”. The “disruption of FOXP3-NFAT heterodimerization” value with FOXP3/NFAT1 was “retained the activity to impair Foxp3/NFAT interaction”. Besides, in the series with Foxp3–NFAT interaction, the “interaction between Foxp3 and NFAT by co-immunoprecipitation” value is reported as “able to reduce significantly the interaction”.
